# Marks after values point to notes of the source that are not given here. Where no end group is shown, it is not given here.
# System: MCF7 cells
# Experiment: MTS cell viability assay, MCF7
# Type: cell-based, human
# Conditions: mean±SD
# Protocol: Cell-lines used in this study were purchased from the Bioresource Collection and Research Center (BCRC) in and the cells were cultured by the standard cell culture procedures and conditions provided by the BCRC. MB231 (BCRC 60425), MB453 (BCRC 60429), and HDF cells were cultured as previously described by Ting et al. MCF7 […] cells were maintained in α-MEM medium (ThermoFisher Scientific) supplemented with 2 mM L-glutamine, 10% FBS, 0.1 mM non-essential amino acids, 1 mM sodium pyruvate, and antibiotics (100 U mL^−1 penicillin G and […] streptomycin). M10 (BCRC 60197) cells were maintained in α-MEM medium (ThermoFisher Scientific) supplemented with 10% FBS and antibiotics. With the exception of MB231 and MB453, all cells were cultured at 37° C. with 5% CO2. For the cell viability and transfection assay, 1×10^4 cells [5×10^3 M10 cells were seeded and cultured for 48 h to allow the cells sufficient time for attachment] were seeded into the wells of a 96-well plate and cultured overnight. For the transfection assays, cells were transfected with 0.1-0.4 μg FOSB/FOSAB expression plasmid (Origene Technology Inc.) and cell viability was determined after 72 h. The transfection efficiencies (number of cells expressing eGFP/all cells) of the MB231 transfection assays were determined by observing ten randomly selected fields (from three independent transfections) of control GFP plasmid transfections under an inverted microscope (Olympus, IX71) coupled to a digital camera (Olympus DP80), using an […] (LCPlanFI 20×/0.40 Ph1). CellSens standard software (Olympus) was used for image acquisition. During the drug treatment assay, inhibitors (PD98059, BAPTA-AM, and AlP II) were added 30 min prior to TP4, and cell viability was determined at indicated time-points. Transfection was performed using LipofectAMINE™ 3000 (ThermoFisher Scientific), according to the manufacturer's recommendations. Knock-down cells were generated by transducing MB231 cells with pre-synthesized FOSB (or control) shRNA lentiviral particles (Santa Cruz Biotechnology), and selecting puromycin-resistant cells in accordance with the manufacturer's standard protocol. MB231 or M10 cells stably expressing eGFP or mOrange2 were generated through transfection with peGFP-puromycin or pmOrange2-C1 plasmid, followed by puromycin (5 μg mL^−1) or G418 (500 μg mL^−1) selection as described above.
# Cell viability was quantitatively analyzed using the CellTiter-Glo® Luminescent Cell Viability Assay kit (ATP assay) and CellTiter 96® AQueous Non-Radioactive Cell Proliferation Assay kit (MTS assay) (Promega) in accordance with the manufacturer's protocol. For MTS assay, 1×10^4 cells were seeded into the wells of a 96-well plate and cultured overnight [5×10^3 M10 cells were seeded and cultured for 48 h to enable sufficient well attachment]. Cells were subsequently treated with different doses of TP4 (2.5-20 μg mL^−1) and harvested at the indicated time-points (3-24 h). Reaction mixtures (20 μL: MTS+PMS, using a ratio 20:1) were directly added to the cells, and the plates were incubated for 3 h at 37° C. Absorbance at 490 nm is directly proportional to the number of living cells in culture and was measured using a photometer (SpectraMax® i3, Molecular Devices). ATP assay was performed as previously described by Ting et al. Lactate dehydrogenase (LDH) assays were performed by quantitatively measuring cell lysis with a Cytotoxicity Detection Kit^PLUS (LDH) (Roche) in accordance with the manufacturer's protocol. The LDH standard was purchased from Cayman Chemical. Briefly, 1×10^4 cells were seeded into the wells of a 96-well plate and cultured overnight. Culture media were replaced with fresh medium containing 1% FBS and cells were subsequently treated with different doses of TP4 (2.5-20 μg mL^−1). Supernatants were harvested at 3 h. […]
sequence,measurement,setting,value
"FIHHIIGGLFSAGKAIHRLIRRRRR [TP4, tilapia piscidin 4]","Cellular toxicity (cell viability), MTS assay","MCF7, TP4 2.5 μg/mL, 3 h",98.00 ± 6.05^a
same,"Cellular toxicity (cell viability), MTS assay","MCF7, TP4 2.5 μg/mL, 6 h",91.20 ± 6.51^b
same,"Cellular toxicity (cell viability), MTS assay","MCF7, TP4 2.5 μg/mL, 12 h",93.01 ± 10.60^b
same,"Cellular toxicity (cell viability), MTS assay","MCF7, TP4 2.5 μg/mL, 24 h",90.83 ± 5.30^b
same,"Cellular toxicity (cell viability), MTS assay","MCF7, TP4 5.0 μg/mL, 3 h",83.74 ± 6.10^d
same,"Cellular toxicity (cell viability), MTS assay","MCF7, TP4 5.0 μg/mL, 6 h",79.17 ± 12.06^d
same,"Cellular toxicity (cell viability), MTS assay","MCF7, TP4 5.0 μg/mL, 12 h",77.79 ± 7.73^d
same,"Cellular toxicity (cell viability), MTS assay","MCF7, TP4 5.0 μg/mL, 24 h",75.19 ± 11.28^d
same,"Cellular toxicity (cell viability), MTS assay","MCF7, TP4 10.0 μg/mL, 3 h",75.01 ± 11.15^d
same,"Cellular toxicity (cell viability), MTS assay","MCF7, TP4 10.0 μg/mL, 6 h",70.30 ± 12.26^d
same,"Cellular toxicity (cell viability), MTS assay","MCF7, TP4 10.0 μg/mL, 12 h",68.89 ± 6.54^d
same,"Cellular toxicity (cell viability), MTS assay","MCF7, TP4 10.0 μg/mL, 24 h",67.00 ± 10.90^d
same,"Cellular toxicity (cell viability), MTS assay","MCF7, TP4 15.0 μg/mL, 3 h",45.15 ± 9.89^d
same,"Cellular toxicity (cell viability), MTS assay","MCF7, TP4 15.0 μg/mL, 6 h",28.28 ± 6.29^d
same,"Cellular toxicity (cell viability), MTS assay","MCF7, TP4 15.0 μg/mL, 12 h",26.23 ± 6.08^d
same,"Cellular toxicity (cell viability), MTS assay","MCF7, TP4 15.0 μg/mL, 24 h",25.09 ± 3.83^d
same,"Cellular toxicity (cell viability), MTS assay","MCF7, TP4 20.0 μg/mL, 3 h",24.63 ± 3.80^d
same,"Cellular toxicity (cell viability), MTS assay","MCF7, TP4 20.0 μg/mL, 6 h",15.48 ± 2.33^d
same,"Cellular toxicity (cell viability), MTS assay","MCF7, TP4 20.0 μg/mL, 12 h",14.36 ± 2.10^d
same,"Cellular toxicity (cell viability), MTS assay","MCF7, TP4 20.0 μg/mL, 24 h",11.90 ± 3.39^d

# Reference: patent US10232013B2, “Use of an antimicrobial peptide TP4 in treating a cancer” (Academia Sinica, priority 2016, dated 2019)
